# Assay results: patent publication US20240108637A1, “EPITE[…] AND/OR A STEROID SULFATASE INHIBITOR FOR USE IN TREATING OR IMPROVING AGE RELATED COGNITIVE IMPAIRMENT” (U[…] DE OLAVIDE, priority 2020, published 2024)
# Entries after “also recorded” stand apart in the source; their conditions may differ. Where a name gives a salt, the structure may show the parent alone.
# Key:
# [1] = tested on: mammalian model with intrahippocampal βA oligomers; conditions: local administration; previously reported; cited from earlier work
# [2] = tested on: C. elegans; assay: Lifespan assays in C. elegans; assay type: in vivo, Caenorhabditis elegans; conditions: for life span / longevity: wild type background, FIG. 4f-g, FIG. 13c-d
# Procedure: F2 L4 animals were shifted to 25° C. (t=0). ES treatment started at L4 stage, control and treated plates were prepared fresh and animals transferred each three days until death. Animals lost or dead by non-physiological causes were censured. Survival curves were generated using the product-limit method of Kaplan and Meier. The log-rank (Mantel-Cox) test was used to evaluate differences in survival and […] lower than 0.05 were considered significant.
# [3] = tested on: NL5901 strain expressing α-synuclein in muscle cells; assay: Parkinson's disease model: mobility of NL5901 strain; assay type: in vivo, C. elegans; conditions: 1 μg/ml
# Excerpt: We have studied the anatomical location of sul-2 expression from an extrachromosomal array and in single-copy insertion transgenic strains. […] There is no detectable expression in the germline in any transgenic strains (FIG. 2n and FIG. 10, 11a-b). ASE neurons are responsible for the attractive response of Na+ and Cl−, among others. Defects in odour sensing affect longevity. Therefore, we tested the ability of sul-2 mutants to respond to Cl− or Na+ and found no differences compared to wild type animals (FIG. 11c-d). Furthermore, sul-2 mutation increases the longevity of daf-10(m79), a long-lived mutant defective in sensory cilia formation25 (FIG. 11e). […] Reduction of sul-2 improves aging associated diseases in C. elegans Aging is considered the main risk factor for the onset of neurodegenerative disorders like Parkinson, Huntington, or Alzheimer's diseases. These disorders are caused by the progressive decline of proteostasis, which results in protein aggregation that compromises cellular functions and finally causes cell death. Germline-deficient C. elegans delay the symptoms derived from the proteotoxicity of ectopically expressed human β-amyloid (βA). We tested if sul-2 mutations or STX64 treatment improves the symptoms of C. elegans models for neurodegenerative diseases.
# [4] = tested on: daf-2(e1370); assay: Developmental arrest (dauer / L1) at 25° C.; assay type: in vivo, C. elegans; conditions: daf-2(e1370) background
# Procedure: Worms were growth at 16° C. until L4, then shifted to 25° C. considering this Day 0 of adulthood. The pumping was counted under the Leica stereoscope at 100× magnification for 30 seconds. Data display from two independent biological assays (n=30 per day). Two-tailed Mann-Whitney t-test, ***p=0.0006. e Thrashing in sul-2(gk187) is similar to wild type but is slightly lower in sul-2 (pv17) at 25° C. on day 1 of adulthood. On day 6 at 25° of adulthood, the trashing on sul-2(gk187) is lower than wild type and sul-(pv17), with no differences among these last strains. The population of sul-2(gk17) at day 6 seems to distribute into two different populations, one with almost no thrashing and other with values similar to wild type a sul-2(pv17). […] In this condition, all animals from daf-2(e1370); sul-2(pv17) double mutants arrest at L1 stage. Similarly, more than 50% of animals arrest in L1 stage in daf-2(m577); sul-2(pv17) background, while none of the single mutants show this phenotype. i Example of sul-2(pv17) larvae, dauer larval arrest of daf-2(e1370) or L1 arrest of daf-2(e1370); sul-2 (pv17) and daf-2(e1370); sul-2(gk187) at 25° C. Animals were grown up to L4 at 16° C., then shifted at 25° C., progeny were scored or imaged after 72 hours. Photographs were taken in a Leica scope.
# [5] = tested on: GMC101 strain expressing human β-amyloid in muscle; assay: Alzheimer's disease model: thermodependent paralysis of GMC101 strain; assay type: in vivo, C. elegans; conditions: 1 μg/ml
# Excerpt: In this model, GFP-labelled dopaminergic neurons die due to α-synuclein toxicity. […] We also tested two different strains of Alzheimer's disease (AD) in worms, where immobility is caused by expression of βA protein in muscle cells.
# [6] = tested on: aged mice; assay: Object recognition test in aged mice; assay type: in vivo; conditions: aged mice, vs vehicle-treated, FIG. 21
# Procedure: (§1) The first, object recognition, after training with identical objects, tests the ability to identify different objects exposed together with a familiar one. When this happens, the object discrimination index is positive and higher than 0.1. […] For this purpose, during training, the entry latency to the preferred site is established and the aversive stimulus is administered.
# [7] = tested on: aged mice; assay: Passive avoidance test in aged mice (STM and LTM); assay type: in vivo; conditions: aged mice, vs vehicle-treated, FIG. 21
# Procedure: as §1
# During short- and long-term memory tests (STM and LTM) if the mouse associated the preferred place to the aversive stimulus, the input latency increases with respect to training.
# [8] = tested on: 16-month-old mice; assay: Open Field test; assay type: in vivo; conditions: FIG. 20; for habituation ability: aged animals, Open Field 15 minutes
# Procedure: (§2) The “Open Field” is a test where the mouse must explore an unknown space for 15 minutes. In this test, both mobility and habituation (cognitive parameter that measures the individual's ability to recognize the environment) can be studied. On the other hand, the “Y maze” test is a test where the mouse explores the maze for 6 minutes. This test evaluates the distance traveled as a measure of mobility and the ability to visit triplets of arms without repeating any of them as a sign of immediate memory.
# [9] = tested on: 16-month-old mice; assay: Y maze test; assay type: in vivo; conditions: aged animals, Y maze 6 minutes, FIG. 20
# Procedure: as §2
compound,measurement,setting,value
CCCCCCCCCCCCCC(=O)NCCc1ccc(OS(N)(=O)=O)cc1 [DU-14],memory loss,[1],could alleviate memory loss
dehidroepiandrosterone sulfate [DHEAS],life span / longevity,[2]; 1 μg/ml,does not affect longevity; also recorded: do not affect
same,mobility with age,[3],improved the mobility
same,L1 arrest,[4],increase
pregnenolone sulfate [PregS],mobility with age,[3],No effect is observed
same,mobility with age,[3]; listed as pregnenolone sulfate,showed no effect
"C[C@]12CC[C@H]3[C@@H](CCC4=CC(=O)CC[C@@]43C)[C@@H]1CC[C@@H]2O [T, testosterone]",mobility with age,[3],No effect is observed
same,mobility with age,[3]; listed as testosterone,showed no effect
"C[C@]12CC[C@H]3[C@@H](CCC4=CC(=O)CC[C@@]43C)[C@@H]1CC[C@@H]2OS(=O)(=O)O [TS, [(8R,9S,10R,13S,14S,17S)-10,13-dimethyl-3-oxo-1,2,6,7,8,9,11,12,14,15,16,17-dodecahydrocyclopenta[a]phenanthren-17-yl] hydrogen sulfate]",life span / longevity,[2]; 1 μg/ml,does not affect longevity; also recorded: do not affect
same,mobility with age,[3],improved the mobility
same,paralysis phenotype,"[5]; FIG. 3h, FIG. 4b",is ameliorate
same,paralysis phenotype,"[5]; normal NGM plates, FIG. 13a",is reduced
same,L1 arrest,[4],increase
C[C@]12CC[C@H](O)CC1=CC[C@@H]1[C@@H]2CC[C@]2(C)C(=O)CC[C@@H]12 [DHEA],mobility with age,[3],No effect is observed; also recorded: showed no effect
"C[C@]12CC[C@H]3[C@@H](CCC4=CC(=O)CC[C@@]43C)[C@@H]1CC[C@H]2OS(=O)(=O)O [ES, N,N-diethylethanamine;[(8R,9S,10R,13S,14S,17R)-10,13-dimethyl-3-oxo-1,2,6,7,8,9,11,12,14,15,16,17-dodecahydrocyclopenta[a]phenanthren-17-yl]hydrogen sulfate]",lifespan,"[2]; FIG. 15, treatment from L4 stage, 25° C., fer-15(b26) background, p<0.05 Log-Rank (Mantel-Cox)",significantly increased life span
same,lifespan,"[2]; sul-2(gk187) background, 1 μg/ml, FIG. 4f",does not further increase
same,lifespan,"[2]; sul-2(pv17) background, 1 μg/ml, FIG. 13c,d",does not increase further
same,longevity,[2]; sul-2 mutants backgrounds,did not further increase longevity
same,life span / longevity,[2]; 1 μg/ml,increases life span; also recorded: increased in longevity; also recorded: increases lifespan
same,mobility with age,[3],improved the mobility; also recorded: better result
same,paralysis phenotype,"[5]; FIG. 3h, FIG. 4b",is ameliorate
same,paralysis phenotype,"[5]; normal NGM plates, FIG. 13a",is reduced
same,L1 arrest,[4],increase
same,"learning and memory, object recognition test",[6],showed significantly both learning (STM) and ability to store information (memory); also recorded: significant improvement in both learning (STM) and ability to store information (memory)
same,"learning and memory, object recognition test",[6]; listed as E-S,showed significantly both learning (STM) and ability to store information (memory)
same,"learning (STM) and memory (LTM), passive avoidance test",[7],showed significantly both learning (STM) and ability to store information (memory); also recorded: significant improvement in both learning (STM) and ability to store information (memory)
same,"learning (STM) and memory (LTM), passive avoidance test",[7]; listed as E-S,showed significantly both learning (STM) and ability to store information (memory)
same,motor ability (mobility),"[8]; 16-month-old mice, Open Field mobility and Y maze distance traveled",tend to improve
same,habituation ability,[8],tend to improve
same,habituation ability,[8]; listed as E-S,are improved
same,immediate memory,[9],tend to improve
same,immediate memory,[9]; listed as E-S,are improved
